Reference: patent US7732449B2, “Inhibitors of cathepsin S” (IRM LLC, priority 2003, dated 2010)
Like-named read-outs stand apart in the source and are kept apart here.

Experiments:
Format in all cases: biochemical
Cathepsin L = Cathepsin L (Homo sapiens, UniProt P07711); assay: Cathepsin L inhibition, fluorogenic peptide substrate kinetic assay (selectivity); details: ratio of cathepsin L inhibition constant to cathepsin S inhibition constant
Cathepsin S = Cathepsin S (Homo sapiens, UniProt P25774); assay: Cathepsin S inhibition, fluorogenic peptide substrate kinetic assay;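 further: cleavage rate of a coumarin-labelled peptide substrate (50 µM) read as fluorescence increase at Ex 380 nm and Em 450 nm, relative to inhibitor-free control reactions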
Cathepsin S, sequence (P25774 115-331, species assumed): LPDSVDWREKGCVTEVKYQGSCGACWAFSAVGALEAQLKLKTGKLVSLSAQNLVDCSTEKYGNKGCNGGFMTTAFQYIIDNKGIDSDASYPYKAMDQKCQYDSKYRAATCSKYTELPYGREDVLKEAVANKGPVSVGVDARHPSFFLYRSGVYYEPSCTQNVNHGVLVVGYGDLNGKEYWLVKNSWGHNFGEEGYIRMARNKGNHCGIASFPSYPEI

Cathepsin B = Cathepsin B (Homo sapiens, UniProt P07858); assay: Cathepsin B inhibition, fluorogenic peptide substrate kinetic assay (selectivity); details: ratio of cathepsin B inhibition constant to cathepsin S inhibition constant;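 further: value is the cathepsin B inhibition constant divided by the cathepsin S one, each from kinetic fluorescence readings (ex 380 nm, em 450 nm) of a 10 µM coumarin peptide substrate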
Cathepsin K = target: T1, Cathepsin K (Homo sapiens, UniProt P43235); assay: Cathepsin K inhibition, fluorogenic peptide substrate kinetic assay (selectivity); details: ratio of cathepsin K inhibition constant to cathepsin S inhibition constant
T1 sequence (P43235 115-329): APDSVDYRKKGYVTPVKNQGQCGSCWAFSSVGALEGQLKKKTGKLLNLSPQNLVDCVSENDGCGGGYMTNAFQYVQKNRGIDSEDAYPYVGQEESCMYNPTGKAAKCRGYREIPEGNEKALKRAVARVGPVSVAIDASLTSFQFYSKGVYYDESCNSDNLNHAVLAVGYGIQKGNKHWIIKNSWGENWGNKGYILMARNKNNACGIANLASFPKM

[1] = Cathepsin S inhibition constant, pH5.5, 20 minutes preincubation at room temperature, read-out: Ki Cat. S

Cathepsin L, sequence (P07711 114-333, species assumed): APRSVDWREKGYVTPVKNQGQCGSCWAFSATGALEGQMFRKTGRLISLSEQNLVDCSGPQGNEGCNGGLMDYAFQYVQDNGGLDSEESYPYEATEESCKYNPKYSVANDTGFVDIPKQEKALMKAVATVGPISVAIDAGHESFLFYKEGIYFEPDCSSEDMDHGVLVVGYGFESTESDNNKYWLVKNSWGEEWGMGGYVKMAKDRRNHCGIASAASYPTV

CC(C)[C@@H](CN1CC(C)(C)c2cc(F)ccc21)NC(=O)OC(C(=O)N1CCOCC1)c1ccccc1 (mixture of isomers) [Example 109, [1-(S)-(5-Fluoro-3,3-dimethyl-2,3-dihydro-indol-1-ylmethyl)-2-methyl-propyl]-carbamic acid 2-morpholin-4-yl-2-oxo-1-(R,S)-phenyl-ethyl ester]
Selectivity for Cat. S over Cat. L (Cathepsin L): + (+, >10)
Ki (Cathepsin S; [1]): 1000 to 10000 nM
Selectivity for Cat. S over Cat. B (Cathepsin B): + (+, >10)

O=C(NCCN1CCc2cc(F)ccc21)[C@H](CC1CCCCC1)OC(=O)N1CCOCC1 [Example 1, Morpholine-4-carboxylic acid (S)-2-cyclohexyl-1-[2-(5-fluoro-2,3-dihydro-indol-1-yl)-ethylcarbamoyl]-ethyl ester]
Ki (Cathepsin S; [1]): 1000 to 10000 nM
Selectivity for Cat. S over Cat. B (Cathepsin B): + (+, >10)

C[C@@H](CNc1ccc(OC(F)(F)F)cc1)NC(=O)[C@H](CSCc1ccccc1)NC(=O)N1CCOCC1 [Example 17, Morpholine-4-carboxylic acid {2-benzylsulfanyl-1-(R)-[1-(S)-methyl-2-(4-trifluoromethoxy-phenylamino)-ethylcarbamoyl]-ethyl}-amide]
Ki (Cathepsin S; [1]): < 100 nM

O=C(N[C@@H](CCc1ccccc1)CNc1ccc(OC(F)(F)F)cc1)[C@@H](CC(=O)N1CCOCC1)CC1CCCCC1 [Example 23, 2-(R)-Cyclohexylmethyl-4-morpholin-4-yl-4-oxo-N-{3-phenyl-1-(S)-[(4-trifluoromethoxy-phenylamino)-methyl]-propyl}-butyramide]
Selectivity for Cat. S over Cat. K (Cathepsin K): + (+, >10)
Ki (Cathepsin S): < 100 nM
Selectivity for Cat. S over Cat. B (Cathepsin B): ++ (++, >100)

CC(C)[C@@H](CNc1ccc(OC(F)(F)F)cc1)NC(=O)[C@@H](CC(=O)N1CCOCC1)CC1CCCCC1 [Example 24, 2-(R)-Cyclohexylmethyl-N-{2-methyl-1-(S)-[(4-trifluoromethoxy-phenylamino)-methyl]-propyl}-4-morpholin-4-yl-4-oxo-butyramide]
Ki (Cathepsin S): < 100 nM

CS(=O)(=O)CC[C@@H](CNc1ccc(OC(F)(F)F)cc1)NC(=O)[C@@H](CC(=O)N1CCOCC1)CC1CCCCC1 [Example 28, 2-(R)-Cyclohexylmethyl-N-{3-methanesulfonyl-1-(S)-[(4-trifluoromethoxy-phenylamino)-methyl]-propyl}-4-morpholin-4-yl-4-oxo-butyramide]
Ki (Cathepsin S): < 100 nM

CS(=O)(=O)CC[C@H](CNc1ccc(OC(F)(F)F)cc1)NC(=O)[C@@H](CC(=O)N1CCOCC1)CC1CCCCC1 [Example 29, 2-(R)-Cyclohexylmethyl-N-{3-methanesulfonyl-1-(R)-[(4-trifluoromethoxy-phenylamino)-methyl]-propyl}-4-morpholin-4-yl-4-oxo-butyramide]
Ki (Cathepsin S): < 100 nM

CC(C)[C@@H](CNc1ccc(OC(F)(F)F)cc1)NC(=O)[C@H](CCCc1ccccc1)CC(=O)N1CCOCC1 [Example 30, 2-(R)-(2-Morpholin-4-yl-2-oxo-ethyl)-5-phenyl-pentanoic acid {2-methyl-1-(S)-[(4-trifluoromethoxy-phenylamino)-methyl]-propyl}-amide]
Ki (Cathepsin S): < 100 nM

CC(C)[C@@H](CNc1ccc(OC(F)(F)F)cc1)NC(=O)[C@@H](CC(=O)N1CCOCC1)CC1CCCC1 [Example 31, 2-(R)-Cyclopentylmethyl-N-{2-methyl-1-(S)-[(4-trifluoromethoxy-phenylamino)-methyl]-propyl}-4-morpholin-4-yl-4-oxo-butyramide]
Ki (Cathepsin S): < 100 nM

CC(C)[C@@H](CNc1ccc(OC(F)(F)F)cc1)NC(=O)[C@H](CCC1CCCC1)CC(=O)N1CCOCC1 [Example 33, 2-(R)-(2-Cyclopentyl-ethyl)-N-{2-methyl-1-(S)-[(4-trifluoromethoxy-phenylamino)-methyl]-propyl}-4-morpholin-4-yl-4-oxo-butyramide]
Ki (Cathepsin S): < 100 nM

CC[C@@H](CNc1ccc(OC(F)(F)F)cc1)NC(=O)[C@H](CCc1ccccc1)CC(=O)N1CCOCC1 [Example 38, 4-Morpholin-4-yl-4-oxo-2-(R)-phenethyl-N-{1-(S)-[(4-trifluoromethoxy-phenylamino)-methyl]-propyl}-butyramide]
Ki (Cathepsin S): < 100 nM
Selectivity for Cat. S over Cat. B (Cathepsin B): +++ (+++, >1000)

O=C(N[C@@H](CCc1ccccc1)CNc1ccc(OC(F)(F)F)cc1)[C@@H](CC(=O)N1CCOCC1)c1ccccc1 [Example 40, 4-Morpholin-4-yl-4-oxo-2-(S)-phenyl-N-{3-phenyl-1-(S)-[(4-trifluoromethoxy-phenylamino)-methyl]-propyl}-butyramide]
Ki (Cathepsin S): < 100 nM

O=C(N[C@H](CNc1ccc(OC(F)(F)F)cc1)c1ccccc1)[C@@H](CC(=O)N1CCOCC1)c1ccccc1 [Example 44, 4-Morpholin-4-yl-4-oxo-2-(S)-phenyl-N-[1-(S)-phenyl-2-(4-trifluoromethoxy-phenylamino)-ethyl]-butyramide]
Ki (Cathepsin S): 100 to 1000 nM

C[C@@H]1CN(C(=O)C[C@@H](CC2CCCCC2)C(=O)N[C@@H](C)CNc2ccc(OC(F)(F)F)cc2)C[C@H](C)O1 [Example 50, 2-(R)-Cyclohexylmethyl-4-(cis-2,6-dimethyl-morpholin-4-yl)-N-[1-(S)-methyl-2-(4-trifluoromethoxy-phenylamino)-ethyl]-4-oxo-butyramide]
Selectivity for Cat. S over Cat. K (Cathepsin K): ++ (++, >100)
Ki (Cathepsin S; [1]): < 100 nM
Selectivity for Cat. S over Cat. B (Cathepsin B): +++ (+++, >1000)

C[C@@H](CN1CC(C)(C)c2cc(F)ccc21)NC(=O)[C@@H](CC(=O)N1CCOCC1)c1ccc(C(F)(F)F)cc1 [Example 66, N-[2-(5-Fluoro-3,3-dimethyl-2,3-dihydro-indol-1-yl)-1-(S)-methyl-ethyl]-4-morpholin-4-yl-4-oxo-2-(S)-(4-trifluoromethyl-phenyl)-butyramide]
Ki (Cathepsin S; [1]): 1000 to 10000 nM
Selectivity for Cat. S over Cat. B (Cathepsin B): + (+, >10)

CS(=O)(=O)CC[C@@H](CNc1ccc(OC(F)(F)F)cc1)NC(=O)[C@H](CC1CCCCC1)NC(=O)N1CCOCC1 [Example 74, Morpholine-4-carboxylic acid (2-cyclohexyl-1-(S)-{3-methanesulfonyl-1-(S)-[(4-trifluoromethoxy-phenylamino)-methyl]-propylcarbamoyl}-ethyl)-amide]
Selectivity for Cat. S over Cat. K (Cathepsin K): + (+, >10)
Ki (Cathepsin S; [1]): < 100 nM
Selectivity for Cat. S over Cat. B (Cathepsin B): + (+, >10)

CC[C@@H](CNc1ccc(OC(F)(F)F)cc1)NC(=O)[C@H](CC1CCCCC1)NC(=O)N1CCOCC1 [Example 75, Morpholine-4-carboxylic acid (2-cyclohexyl-1(S)-{1-(S)-[(4-trifluoromethoxy-phenylamino)-methyl]-propylcarbamoyl}-ethyl)-amide]
Selectivity for Cat. S over Cat. K (Cathepsin K): + (+, >10)
Ki (Cathepsin S; [1]): < 100 nM
Selectivity for Cat. S over Cat. B (Cathepsin B): + (+, >10)

CC(C)[C@@H](CNc1cccnc1)NC(=O)[C@H](CC1CCCCC1)NC(=O)N1CCOCC1 [Example 76, Morpholine-4-carboxylic acid {2-cyclohexyl-1-(S)-[2-methyl-1-(S)-(pyridin-3-ylaminomethyl)-propylcarbamoyl]-ethyl}-amide]
Selectivity for Cat. S over Cat. K (Cathepsin K): + (+, >10)
Ki (Cathepsin S; [1]): 100 to 1000 nM
Selectivity for Cat. S over Cat. B (Cathepsin B): + (+, >10)

C[C@@H](CNc1nc2ccccc2s1)NC(=O)[C@H](CC1CCCCC1)NC(=O)N1CCOCC1 [Example 78, Morpholine-4-carboxylic acid {1-(S)-[2-(benzothiazol-2-ylamino)-1-(S)-methyl-ethylcarbamoyl]-2-cyclohexyl-ethyl}-amide]
Selectivity for Cat. S over Cat. K (Cathepsin K): + (+, >10)
Ki (Cathepsin S; [1]): 1000 to 10000 nM
Selectivity for Cat. S over Cat. B (Cathepsin B): + (+, >10)

C[C@@H](CNc1nc2ccccc2o1)NC(=O)[C@H](CC1CCCCC1)NC(=O)N1CCOCC1 [Example 79, Morpholine-4-carboxylic acid {1-(S)-[2-(benzooxazol-2-ylamino)-1-(S)-methyl-ethylcarbamoyl]-2-cyclohexyl-ethyl}-amide]
Selectivity for Cat. S over Cat. K (Cathepsin K): + (+, >10)
Ki (Cathepsin S; [1]): 1000 to 10000 nM
Selectivity for Cat. S over Cat. B (Cathepsin B): + (+, >10)

O=C(N[C@H](CN1CC2(CC2)c2cc(F)ccc21)C1CC1)[C@H](CC1CCCCC1)NC(=O)N1CCOCC1 [Example 82, Morpholine-4-carboxylic acid {2-cyclohexyl-1-(S)-[1-(S)-cyclopropyl-2-(5-fluoro-3,3-spirocyclopropyl-2,3-dihydro-indol-1-yl)-ethylcarbamoyl]-ethyl}-amide]
Selectivity for Cat. S over Cat. K (Cathepsin K): ++ (++, >100)
Ki (Cathepsin S; [1]): < 100 nM
Selectivity for Cat. S over Cat. B (Cathepsin B): ++ (++, >100)

C[C@@H]1CN(C(=O)[C@H](CC2CCCCC2)OC(=O)N[C@@H](C)CN2c3ccc(F)cc3CC2(C)C)C[C@H](C)O1 [Example 93, [2-(5-Fluoro-2,2-dimethyl-2,3-dihydro-indol-1-yl)-1-(S)-methyl-ethyl]-carbamic acid 1-(S)-cyclohexylmethyl-2-(2,6-cis-dimethyl-morpholin-4-yl)-2-oxo-ethyl ester]
Selectivity for Cat. S over Cat. K (Cathepsin K): + (+, >10)
Ki (Cathepsin S; [1]): 1000 to 10000 nM
Selectivity for Cat. S over Cat. B (Cathepsin B): + (+, >10)
